In paper PMC11770101, “Nonenzymatic lysine D-lactylation induced by glyoxalase II substrate SLG dampens inflammatory immune responses” (Cell Research, 2025):

Target: T1, glyoxalase II (GLO2) (Mus musculus, UniProt Q99KB8)
T1 construct: gene Hagh
Assay: LC-MS quantification of accumulated GLO2 substrate SLG in BMDMs treated with […] DiFMOC-G for […] h
Assay type: cell-based

O=C(O)CNC(=O)[C@H](CSC(=O)OCC1c2ccccc2-c2ccccc21)NC(=O)CC[C@H](NC(=O)OCC1c2ccccc2-c2ccccc21)C(=O)O [DiFMOC-G]
LC-MS quantification of accumulated GLO2 substrate SLG in BMDMs treated with 0.4: treatment with DiFMOC-G could dramatically induce SLG accumulation (Fig. 4e), recapitulating changes observed during macrophage activation
